Values of other authors in US12728116B2, “Methods of treating multiple sclerosis” (Vanda Pharmaceuticals Inc., priority 2021, dated 2026).

Test system: adult subjects with relapsing MS
Details: comparison values given in brackets; cited from earlier work

| SMILES | ECG HR effect: time of nadir post-dose (other S1P receptor modulators) [h] |
| --- | --- |
| CCCCCCCCc1ccc(CCC(N)(CO)CO)cc1 [fingolimod] | ~6 |
| CCc1cc(/C(C)=N/OCc2ccc(C3CCCCC3)c(C(F)(F)F)c2)ccc1CN1CC(C(=O)O)C1 [siponimod] | 3 to 4 |
